AC50 data for two compounds are collected here from ChEMBL document CHEMBL5291721, “A preclinical secondary pharmacology resource illuminates target-adverse drug reaction associations of marketed drugs” (Nat Commun, 2023).

For assay [1], the target named is T1, Glucocorticoid receptor (Homo sapiens, UniProt P04150).
T1 sequence (P04150 whole entry): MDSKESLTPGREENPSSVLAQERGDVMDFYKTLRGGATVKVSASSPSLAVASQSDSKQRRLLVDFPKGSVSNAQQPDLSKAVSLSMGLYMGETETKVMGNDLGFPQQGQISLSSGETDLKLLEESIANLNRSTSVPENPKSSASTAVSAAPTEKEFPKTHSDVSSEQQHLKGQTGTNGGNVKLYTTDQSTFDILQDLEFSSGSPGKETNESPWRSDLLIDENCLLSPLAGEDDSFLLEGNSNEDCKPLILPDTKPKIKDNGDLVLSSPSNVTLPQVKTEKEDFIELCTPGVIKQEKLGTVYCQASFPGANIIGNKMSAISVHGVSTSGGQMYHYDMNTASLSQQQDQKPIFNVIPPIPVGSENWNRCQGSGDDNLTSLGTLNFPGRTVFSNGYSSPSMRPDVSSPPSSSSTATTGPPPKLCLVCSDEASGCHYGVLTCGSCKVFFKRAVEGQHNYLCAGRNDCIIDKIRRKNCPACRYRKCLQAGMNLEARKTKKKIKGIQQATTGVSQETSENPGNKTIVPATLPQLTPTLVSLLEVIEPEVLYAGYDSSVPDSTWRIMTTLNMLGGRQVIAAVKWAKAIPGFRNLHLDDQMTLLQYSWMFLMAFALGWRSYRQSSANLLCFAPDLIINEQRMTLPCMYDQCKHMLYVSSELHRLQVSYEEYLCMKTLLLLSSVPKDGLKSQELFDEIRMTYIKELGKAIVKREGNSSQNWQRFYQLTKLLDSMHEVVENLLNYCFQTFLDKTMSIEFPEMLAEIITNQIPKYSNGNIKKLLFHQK
Format: functional.

Assay [2] deals with T1, Glucocorticoid receptor. Format: functional. This is another data set of the same source.
Assay [3] concerns the target Gamma-aminobutyric acid receptor subunit alpha-1/alpha-2/beta-2/gamma-2 (Homo sapiens, UniProt P14867+P18507+P47869+P47870). It is filed as functional, cell-based.
The target of assay [4] is Sodium channel protein type 5 subunit alpha (Homo sapiens, UniProt Q14524). It is filed as functional, cell-based.
Chain of Sodium channel protein type 5 subunit alpha (Q14524 whole entry): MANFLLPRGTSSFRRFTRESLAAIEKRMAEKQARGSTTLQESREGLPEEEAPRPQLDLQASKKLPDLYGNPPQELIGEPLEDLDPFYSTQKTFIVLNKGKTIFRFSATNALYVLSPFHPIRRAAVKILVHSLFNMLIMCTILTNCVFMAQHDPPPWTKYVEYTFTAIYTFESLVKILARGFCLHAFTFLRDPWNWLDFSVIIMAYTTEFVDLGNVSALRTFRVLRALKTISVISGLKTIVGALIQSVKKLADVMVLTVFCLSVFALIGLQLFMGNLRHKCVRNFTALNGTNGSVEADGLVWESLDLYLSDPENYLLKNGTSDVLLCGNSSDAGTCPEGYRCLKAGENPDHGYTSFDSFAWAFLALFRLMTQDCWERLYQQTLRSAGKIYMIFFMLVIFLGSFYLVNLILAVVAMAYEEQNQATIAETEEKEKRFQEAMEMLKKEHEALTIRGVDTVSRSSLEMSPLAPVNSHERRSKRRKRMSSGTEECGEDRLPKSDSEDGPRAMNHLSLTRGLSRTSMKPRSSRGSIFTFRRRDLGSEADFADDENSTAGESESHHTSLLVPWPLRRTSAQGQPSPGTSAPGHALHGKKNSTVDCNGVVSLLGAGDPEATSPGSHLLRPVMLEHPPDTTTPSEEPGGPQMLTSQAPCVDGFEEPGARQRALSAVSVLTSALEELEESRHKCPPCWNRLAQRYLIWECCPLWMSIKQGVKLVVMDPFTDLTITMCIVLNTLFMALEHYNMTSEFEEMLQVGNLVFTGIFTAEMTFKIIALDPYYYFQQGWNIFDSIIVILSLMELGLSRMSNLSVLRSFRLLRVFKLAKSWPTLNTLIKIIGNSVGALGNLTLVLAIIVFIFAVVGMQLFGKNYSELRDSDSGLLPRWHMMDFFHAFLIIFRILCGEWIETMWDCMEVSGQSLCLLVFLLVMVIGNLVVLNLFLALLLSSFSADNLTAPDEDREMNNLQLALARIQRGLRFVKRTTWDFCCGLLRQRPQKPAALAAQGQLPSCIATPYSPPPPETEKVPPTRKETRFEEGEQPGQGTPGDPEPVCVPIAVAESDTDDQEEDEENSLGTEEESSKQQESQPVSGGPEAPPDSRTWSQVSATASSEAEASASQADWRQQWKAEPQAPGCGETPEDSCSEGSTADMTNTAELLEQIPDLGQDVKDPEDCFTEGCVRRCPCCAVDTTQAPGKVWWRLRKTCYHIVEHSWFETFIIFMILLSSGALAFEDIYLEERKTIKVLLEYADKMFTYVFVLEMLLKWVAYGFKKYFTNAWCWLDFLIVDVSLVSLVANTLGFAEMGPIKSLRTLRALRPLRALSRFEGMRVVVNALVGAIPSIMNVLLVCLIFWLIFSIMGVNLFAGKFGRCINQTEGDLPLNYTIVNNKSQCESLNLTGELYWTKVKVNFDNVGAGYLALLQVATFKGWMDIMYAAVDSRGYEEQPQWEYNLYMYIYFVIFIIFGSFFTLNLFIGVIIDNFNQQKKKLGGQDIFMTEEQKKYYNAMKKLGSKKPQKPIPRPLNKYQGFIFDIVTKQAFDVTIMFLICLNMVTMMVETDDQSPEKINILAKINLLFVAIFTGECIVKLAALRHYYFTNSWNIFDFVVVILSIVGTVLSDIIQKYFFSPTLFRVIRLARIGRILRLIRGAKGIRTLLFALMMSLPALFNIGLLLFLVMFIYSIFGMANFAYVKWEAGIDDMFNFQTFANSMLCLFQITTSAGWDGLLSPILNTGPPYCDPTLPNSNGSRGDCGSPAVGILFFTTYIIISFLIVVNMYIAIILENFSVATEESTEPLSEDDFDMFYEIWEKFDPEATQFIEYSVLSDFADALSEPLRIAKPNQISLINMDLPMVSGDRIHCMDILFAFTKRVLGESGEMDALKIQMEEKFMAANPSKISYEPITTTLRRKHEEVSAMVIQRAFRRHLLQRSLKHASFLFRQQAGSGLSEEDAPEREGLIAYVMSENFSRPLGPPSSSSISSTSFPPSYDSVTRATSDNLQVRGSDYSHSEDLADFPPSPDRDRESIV
For assay [5], the target named is Gamma-aminobutyric acid receptor subunit alpha-1 (Rattus norvegicus, UniProt P62813).
Chain of Gamma-aminobutyric acid receptor subunit alpha-1 (P62813 whole entry): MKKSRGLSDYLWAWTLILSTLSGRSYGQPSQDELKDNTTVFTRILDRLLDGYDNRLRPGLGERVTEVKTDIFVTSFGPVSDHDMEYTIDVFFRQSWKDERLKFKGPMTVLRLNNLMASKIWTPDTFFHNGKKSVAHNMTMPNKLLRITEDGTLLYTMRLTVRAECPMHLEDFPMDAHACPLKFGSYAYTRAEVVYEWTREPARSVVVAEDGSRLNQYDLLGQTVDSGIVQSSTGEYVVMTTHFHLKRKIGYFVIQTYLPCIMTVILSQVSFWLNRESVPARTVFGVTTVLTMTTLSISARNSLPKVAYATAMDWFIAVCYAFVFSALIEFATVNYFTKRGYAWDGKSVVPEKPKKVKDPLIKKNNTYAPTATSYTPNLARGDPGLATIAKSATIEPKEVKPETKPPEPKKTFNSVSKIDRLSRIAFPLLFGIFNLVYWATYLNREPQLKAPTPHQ

Each structure is given as a SMILES string. A value given as a limit tells only on which side of the number the result lay.
Further: assay procedure not described here.

Chain of Gamma-aminobutyric acid receptor subunit alpha-1/alpha-2/beta-2/gamma-2 (P14867 whole entry): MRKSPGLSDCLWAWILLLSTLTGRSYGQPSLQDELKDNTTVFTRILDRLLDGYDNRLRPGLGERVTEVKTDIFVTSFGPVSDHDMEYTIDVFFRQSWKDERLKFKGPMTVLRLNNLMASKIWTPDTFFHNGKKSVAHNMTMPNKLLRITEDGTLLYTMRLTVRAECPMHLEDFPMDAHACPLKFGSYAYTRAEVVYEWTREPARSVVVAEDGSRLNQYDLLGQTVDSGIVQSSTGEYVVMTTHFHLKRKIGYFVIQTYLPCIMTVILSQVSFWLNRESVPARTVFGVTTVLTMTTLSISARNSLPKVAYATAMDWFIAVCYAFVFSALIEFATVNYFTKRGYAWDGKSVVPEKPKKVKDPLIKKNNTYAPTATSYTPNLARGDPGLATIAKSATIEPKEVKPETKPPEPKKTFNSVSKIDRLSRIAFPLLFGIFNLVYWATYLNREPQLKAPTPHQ
Chain of Gamma-aminobutyric acid receptor subunit alpha-1/alpha-2/beta-2/gamma-2 (P47870 whole entry): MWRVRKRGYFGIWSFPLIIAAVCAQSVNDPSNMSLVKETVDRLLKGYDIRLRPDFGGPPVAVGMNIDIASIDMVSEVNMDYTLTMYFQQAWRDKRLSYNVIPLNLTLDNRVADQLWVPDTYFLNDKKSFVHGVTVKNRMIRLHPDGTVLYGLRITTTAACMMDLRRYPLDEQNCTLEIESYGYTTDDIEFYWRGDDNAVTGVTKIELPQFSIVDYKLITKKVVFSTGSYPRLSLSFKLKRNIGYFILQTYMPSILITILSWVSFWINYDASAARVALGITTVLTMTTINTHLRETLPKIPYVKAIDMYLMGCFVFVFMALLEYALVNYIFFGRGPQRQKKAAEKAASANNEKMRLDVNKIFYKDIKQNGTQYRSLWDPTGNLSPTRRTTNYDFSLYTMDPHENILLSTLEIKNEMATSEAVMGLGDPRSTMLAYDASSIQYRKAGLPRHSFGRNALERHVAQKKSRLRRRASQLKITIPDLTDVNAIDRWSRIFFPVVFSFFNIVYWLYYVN
Chain of Gamma-aminobutyric acid receptor subunit alpha-1/alpha-2/beta-2/gamma-2 (P18507 whole entry): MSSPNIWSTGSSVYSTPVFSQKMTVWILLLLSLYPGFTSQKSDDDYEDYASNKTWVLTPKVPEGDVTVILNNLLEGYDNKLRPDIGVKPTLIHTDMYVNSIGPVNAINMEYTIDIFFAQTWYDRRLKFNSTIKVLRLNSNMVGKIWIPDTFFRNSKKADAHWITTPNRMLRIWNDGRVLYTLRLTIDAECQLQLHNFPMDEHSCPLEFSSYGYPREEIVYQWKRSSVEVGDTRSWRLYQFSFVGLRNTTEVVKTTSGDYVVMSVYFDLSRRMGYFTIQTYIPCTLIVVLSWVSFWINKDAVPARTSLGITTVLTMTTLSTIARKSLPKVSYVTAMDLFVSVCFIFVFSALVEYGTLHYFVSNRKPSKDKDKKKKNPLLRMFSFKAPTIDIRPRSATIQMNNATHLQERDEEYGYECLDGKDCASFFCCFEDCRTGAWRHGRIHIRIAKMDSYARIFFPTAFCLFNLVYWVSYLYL
Chain of Gamma-aminobutyric acid receptor subunit alpha-1/alpha-2/beta-2/gamma-2 (P47869 whole entry): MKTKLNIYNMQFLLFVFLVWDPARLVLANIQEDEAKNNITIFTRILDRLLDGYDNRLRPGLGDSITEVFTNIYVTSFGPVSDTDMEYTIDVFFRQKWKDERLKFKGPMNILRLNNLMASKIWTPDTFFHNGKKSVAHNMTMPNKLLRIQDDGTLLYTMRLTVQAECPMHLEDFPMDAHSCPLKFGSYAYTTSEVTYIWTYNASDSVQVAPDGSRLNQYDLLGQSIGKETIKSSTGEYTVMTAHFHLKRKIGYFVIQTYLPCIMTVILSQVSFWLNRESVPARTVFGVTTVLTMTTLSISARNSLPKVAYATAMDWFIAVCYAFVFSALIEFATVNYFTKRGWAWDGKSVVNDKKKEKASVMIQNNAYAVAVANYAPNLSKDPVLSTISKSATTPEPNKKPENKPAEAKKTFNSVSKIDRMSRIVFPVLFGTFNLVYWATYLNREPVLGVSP

On to `OCc1cc([C@@H](O)CNCCCCCCOCCOCc2c(Cl)cccc2Cl)ccc1O` [VILANTEROL], for which the AC50 (commonly the midpoint of the concentration-response curve, whichever way the signal moves) on Glucocorticoid receptor [1] is over 30 µM; on Glucocorticoid receptor [2] it was over 30 µM; in assay [3], over 30 µM; in assay [4], 5 µM.
In the case of `O=C(NC[C@H]1CN(c2ccc(N3CCOCC3=O)cc2)C(=O)O1)c1ccc(Cl)s1` [RIVAROXABAN], the AC50 was over 30 µM at Glucocorticoid receptor [1]; over 30 µM in assay [5]; over 30 µM at Glucocorticoid receptor [2]; over 30 µM in assay [3]; over 50 µM in assay [4].
